# Experimental data: patent publication US5387578A (priority 1990, dated 1995)
# Tests used:
# [1] = tested on: LoVo-Doxo-resistant (LoVo/DX) cells; assay type: cell-based; conditions: human, lovo/dx vs lovo cells, 240 min
# [2] = Release of 13b from conjugates in acetate buffer at 37° C.; assay type: physicochemical; conditions: pH 5, 37° C., ionic strength 0.05M, HPLC
# Experimental: In Table 4 are reported t50 % of release of 3'deamino-3'[2(S) -methoxy-4-morpholinyl]doxorubicin (13b) from the conjugates at […] (acetate buffer) at 37° C.
# Release of 13b from conjugates at pH 5 and
# temperature 37° C. in acetate buffer^(7).
# ^(6) Time requests for the release of 50% of free drug 13b. Determine
# by HPLC using a calibration curve of compound 13b.
# ^(7) Ionic strenght 0.05M.
compound,measurement,setting,value
COc1cccc2c1C(=O)c1c(O)c3c(c(O)c1C2=O)C[C@@](O)(C(=O)CO)C[C@@H]3O[C@H]1C[C@H](N2CCO[C@H](OC)C2)[C@H](O)[C@H](C)O1 [Compound 13b],R.I. = Resistance Index = (IC50 LoVo/DX)/(IC50 LoVo),[1],2
COc1cccc2c1C(=O)c1c(O)c3c(c(O)c1C2=O)C[C@@](O)(C(=O)CO)C[C@@H]3O[C@H]1C[C@H](N)[C@H](O)[C@H](C)O1 [Doxorubicin],R.I. = Resistance Index = (IC50 LoVo/DX)/(IC50 LoVo),[1],36.3
"conjugate of Poly(Glu-Na, Ala.Tyr) (1:1:1) and 14-O-(1-piperazinocarbonylmethyloxy-cyclohexyl)-3'-deamino[2(S)-methoxy-4- morpholinyl]doxorubicin [1^viii]",t50% (time for the release of 50% of free drug 13b),[2],3.5 h
copolymer of 3-methacryloylamino-2-hydroxypropane and 14-O-{1-[4-(6-methacryloylaminocaproyl)piperazinlyl]-carbonylmethyloxy-cyclohexyl}-3'-deamino-3'[2(S)-methoxy-4-morpholinyl]doxorubicin [1^vii],t50% (time for the release of 50% of free drug 13b),[2],20 h
